These results are taken from ChEMBL document CHEMBL1134487, “Design, synthesis, and biological evaluation of analogues of the antitumor agent, 2-(4-[(7-chloro-2-quinoxalinyl)oxy]phenoxy)propionic acid (XK469)” (2001).

Experiment [1] deals with Mus musculus. The experiment can be described thus: In vivo activity tested against C3H mice bearing panc-03 murine tumor measured as % treated/control calculated at 530 mg/kg (po). The experiment is classed as functional.
Experiment [2] relates to Mus musculus. The experiment can be described thus: In vivo activity tested against C3H mice bearing panc-03 murine tumor measured as body weight loss at 530 mg/kg (po). The experiment is classed as functional.
In experiment [3] the test system is Mus musculus. The experiment can be described thus: In vivo activity tested against C3H mice bearing panc-03 murine tumor measured as log Kill value was based on tumors that grew at 530 mg/kg (po). The experiment is classed as functional, organism-based. On the set-up: dose 530 mg/kg.
In experiment [4] the test system is Mus musculus. The experiment can be described thus: In vivo activity tested against C3H mice bearing panc-03 murine tumor measured as body weight loss at 1530 mg/kg (po). The experiment is classed as functional.
The test system of experiment [5] is Mus musculus. The experiment can be described thus: In vivo activity tested against C3H mice bearing panc-03 murine tumor measured as log Kill value was based on tumors that grew at 1530 mg/kg (po). The experiment is classed as functional, organism-based. On the set-up: dose 1530 mg/kg.
The subject of experiment [6] is Mus musculus. The experiment can be described thus: In vivo activity tested against C3H mice bearing panc-03 murine tumor measured as % treated/control calculated at 1530 mg/kg (po). The experiment is classed as functional.
The subject of experiment [7] is Mus musculus. The experiment can be described thus: In vivo activity tested against C3H mice bearing colon adenocarcinoma -38(colon-38) tumor measured as body weight loss at 1590 mg/kg (po). The experiment is classed as functional.
The subject of experiment [8] is Mus musculus. The experiment can be described thus: In vivo activity tested against C3H mice bearing colon adenocarcinoma -38(colon-38) tumor measured as % treated/control calculated at 1590 mg/kg (po). The experiment is classed as functional.
The subject of experiment [9] is Mus musculus. The experiment can be described thus: In vivo activity tested against C3H mice bearing colon adenocarcinoma -38(colon-38) tumor measured as log Kill value was based on tumors that grew at 1590 mg/kg (po); None. On the set-up: dose 1590 mg/kg. The experiment is classed as functional, organism-based.
For experiment [10], the system named is Mus musculus. The experiment can be described thus: In vivo activity tested against C3H mice bearing colon adenocarcinoma -38(colon-38) tumor measured as activity rating at 1590 mg/kg (po). The experiment is classed as functional.
The test system of experiment [11] is Mus musculus. The experiment can be described thus: In vivo activity tested against C3H mice bearing colon adenocarcinoma -38(colon-38) tumor measured as body weight loss at 2770 mg/kg (po). The experiment is classed as functional.
For experiment [12], the system named is Mus musculus. The experiment can be described thus: In vivo activity tested against C3H mice bearing colon adenocarcinoma -38(colon-38) tumor measured as % treated/control calculated at 2770 mg/kg (po). The experiment is classed as functional.
The subject of experiment [13] is Mus musculus. The experiment can be described thus: In vivo activity tested against C3H mice bearing colon adenocarcinoma -38(colon-38) tumor measured as activity rating at 2770 mg/kg (po). The experiment is classed as functional.
The test system of experiment [14] is Mus musculus. The experiment can be described thus: In vivo activity tested against C3H mice bearing colon adenocarcinoma -38(colon-38) tumor measured as log Kill value was based on tumors that grew at 2770 mg/kg (po); None. The experiment is classed as functional, organism-based. The arrangement: dose 2770 mg/kg.
The subject of experiment [15] is Mus musculus. The experiment can be described thus: In vivo activity tested against C3H mice bearing panc-03 murine tumor measured as body weight loss at 1310 mg/kg (po). The experiment is classed as functional.
For experiment [16], the system named is Mus musculus. The experiment can be described thus: In vivo activity tested against C3H mice bearing panc-03 murine tumor measured as % treated/control calculated at 1310 mg/kg (po). The experiment is classed as functional.
Experiment [17] has as its system Mus musculus. The experiment can be described thus: In vivo activity tested against C3H mice bearing panc-03 murine tumor measured as log Kill value was based on tumors that grew at 1310 mg/kg (po). The experiment is classed as functional, organism-based. The arrangement: dose 1310 mg/kg.
For experiment [18], the system named is Mus musculus. The experiment can be described thus: In vivo activity tested against C3H mice bearing panc-03 murine tumor measured as% treated/control calculated at 477 mg/kg (po). The experiment is classed as functional.
The test system of experiment [19] is Mus musculus. The experiment can be described thus: In vivo activity tested against C3H mice bearing panc-03 murine tumor measured as body weight loss at 477 mg/kg (po). The experiment is classed as functional.
Experiment [20] relates to Mus musculus. The experiment can be described thus: In vivo activity tested against C3H mice bearing panc-03 murine tumor measured as log Kill value was based on tumors that grew at 477 mg/kg (po); kill value was NIL. On the set-up: dose 477 mg/kg. The experiment is classed as functional, organism-based.
Experiment [21] deals with Mus musculus. The experiment can be described thus: In vivo activity tested against C3H mice bearing panc-03 murine tumor. The experiment is classed as functional.
For experiment [22], the system named is Mus musculus. The experiment can be described thus: In vivo activity tested against C3H mice bearing panc-03 murine tumor measured as % treated/control calculated at 939 mg/kg (po). The experiment is classed as functional.
The test system of experiment [23] is Mus musculus. The experiment can be described thus: In vivo activity tested against C3H mice bearing panc-03 murine tumor measured as body weight loss at 939 mg/kg (po). The experiment is classed as functional.
Experiment [24] relates to Mus musculus. The experiment can be described thus: In vivo activity tested against C3H mice bearing panc-03 murine tumor measured as log Kill value was based on tumors that grew at 939 mg/kg (po). The experiment is classed as functional, organism-based. On the set-up: dose 939 mg/kg.
For experiment [25], the system named is Mus musculus. The experiment can be described thus: In vivo activity tested against C3H mice bearing mammary adenocarcinoma -17/ADR tumor measured as body weight loss at 216 mg/kg (po). The experiment is classed as functional.
The subject of experiment [26] is Mus musculus. The experiment can be described thus: In vivo activity tested against C3H mice bearing panc-03 murine tumor measured as body weight loss at 144 mg/kg (po). The experiment is classed as functional.
Experiment [27] relates to Mus musculus. The experiment can be described thus: In vivo activity tested against C3H mice bearing mammary adenocarcinoma -17/ADR tumor measured as % treated/control calculated at 216 mg/kg (po). The experiment is classed as functional.
The subject of experiment [28] is Mus musculus. The experiment can be described thus: In vivo activity tested against C3H mice bearing panc-03 murine tumor measured as log Kill value was based on tumors that grew at 144 mg/kg (po). The experiment is classed as functional, organism-based. On the set-up: dose 144 mg/kg.
Experiment [29] concerns Mus musculus. The experiment can be described thus: In vivo activity tested against C3H mice bearing panc-03 murine tumor measured as % treated/control calculated at 144 mg/kg (po). The experiment is classed as functional.
Experiment [30] concerns Mus musculus. The experiment can be described thus: In vivo activity tested against C3H mice bearing mammary adenocarcinoma -17/ADR tumor measured as log Kill value was based on tumors that grew at 216 mg/kg (po). The experiment is classed as functional, organism-based. The arrangement: dose 216 mg/kg.

Calls of active or inactive are those of the source. No cut-off for these calls is given here.

For the compound `CC(Oc1ccc(Oc2cnc3ccc(I)cc3n2)cc1)C(=O)O` (stereo not given), the T/C (in general, the ratio of treated to control) in experiment [1] is on record as 15%. The Body weight loss in [2] was found to be 0%. In experiment [3], this compound returned a Log kill of 1.8.

With `CC(Oc1ccc(Oc2cnc3ccc(Cl)cc3n2)cc1)C(=O)N(C)C` (stereo not given), the Body weight loss in experiment [4] is -3.8%. In [5], this compound yielded a Log kill of 2.2. Further, in experiment [6], the T/C was 16%.

On to `CC(Oc1ccc(Oc2cnc3cc(Cl)ccc3n2)cc1)C(=O)O` (stereo not given) [QUIZALOFOP], for which the Body weight loss in [7] was -4%. In [8], the T/C is given as above 100%. Also, in experiment [9], the Log kill entry was “inactive”. In experiment [10], this compound yielded an Activity rating below 0.7.

In the case of `COC(=O)C(C)Oc1ccc(Oc2cnc3cc(Cl)ccc3n2)cc1` (stereo not given), in experiment [11], the Body weight loss was determined as 0%. The T/C in [12] is on record as above 100%. This compound also displayed an Activity rating in experiment [13] below 0.7. Moreover, the Log kill result in [14] is “inactive”.

Regarding `CC(Oc1ccc(Oc2cnc3ccc([N+](=O)[O-])cc3n2)cc1)C(=O)O` (stereo not given), in [15], the Body weight loss is on record as -3.5%. For the same compound, the T/C in experiment [16] is 52%. In experiment [17], the Log kill was found to be 0.6.

On to `CC(Oc1ccc(Oc2cnc3ccc(Cl)cc3n2)cc1)C1N=NN=N1` (stereo not given), for which the T/C in experiment [18] is above 100%. In addition, the Body weight loss in experiment [19] was determined as 8.7%. For the same compound, in [20], the Log kill result was “kill value was NIL”. The compound further gave an Activity rating in [21] below 0.7.

For `COc1ccc2ncc(Oc3ccc(OC(C)C(=O)O)cc3)nc2c1Cl` (stereo not given), in [22], the T/C is 76%. Besides, the Body weight loss in experiment [23] is listed as 11.1%. Also, in experiment [24], the Log kill came out at 0.

Take `CC(Oc1ccc(Oc2cnc3ccc(N=[N+]=[N-])cc3n2)cc1)C(=O)O` (stereo not given): the Body weight loss in [25] is given as 4.3%; in [26] it was 2.9%. Further, the T/C in [27] was 30%; in experiment [29] it was 17%. Further, the Log kill in experiment [28] was found to be 2; in experiment [30] it was 1.
